Measured values reported in the NIST ThermoML archive (doi:10.1021/je3011979).

Key:
[1] = xn = mol fraction of the nth substance listed; conditions: 101 kPa, Liquid, Vibrating tube method
[2] = excess molar enthalpy (molar enthalpy of mixing); xn = mol fraction of the nth substance listed; conditions: 101 kPa, Liquid, Calvet calorimetry

CCCOC(C)=O [propyl ethanoate] + CCCCCC
Conditions	excess molar enthalpy [kcal/mol]	mass density [kg/m3]
[1], 291.15 K, x1 = 0.012	–	663.4
[1], 291.15 K, x1 = 0.0372	–	668
[1], 291.15 K, x1 = 0.0924	–	678.5
[1], 291.15 K, x1 = 0.1648	–	692.7
[1], 291.15 K, x1 = 0.2357	–	707
[1], 291.15 K, x1 = 0.3085	–	722.2
[1], 291.15 K, x1 = 0.3804	–	737.7
[1], 291.15 K, x1 = 0.442	–	751.4
[1], 291.15 K, x1 = 0.5117	–	767.2
[1], 291.15 K, x1 = 0.5781	–	782.6
[1], 291.15 K, x1 = 0.64	–	797.3
[1], 291.15 K, x1 = 0.702	–	812.3
[1], 291.15 K, x1 = 0.7697	–	829.1
[1], 291.15 K, x1 = 0.8208	–	842.2
[1], 291.15 K, x1 = 0.8835	–	858.4
[1], 291.15 K, x1 = 0.9247	–	869.3
[1], 291.15 K, x1 = 1	–	889.6
[1], 298.15 K, x1 = 0.0175	–	658
[1], 298.15 K, x1 = 0.035	–	661.2
[1], 298.15 K, x1 = 0.0831	–	670.3
[1], 298.15 K, x1 = 0.1535	–	683.9
[1], 298.15 K, x1 = 0.2218	–	697.6
[1], 298.15 K, x1 = 0.2836	–	710.3
[1], 298.15 K, x1 = 0.3539	–	724.9
[1], 298.15 K, x1 = 0.4197	–	739.4
[1], 298.15 K, x1 = 0.4795	–	752.7
[1], 298.15 K, x1 = 0.5417	–	766.9
[1], 298.15 K, x1 = 0.604	–	781.5
[1], 298.15 K, x1 = 0.6583	–	794.5
[1], 298.15 K, x1 = 0.7242	–	810.6
[1], 298.15 K, x1 = 0.7772	–	823.9
[1], 298.15 K, x1 = 0.8357	–	838.9
[1], 298.15 K, x1 = 0.8934	–	853.9
[1], 298.15 K, x1 = 0.9187	–	860.5
[1], 298.15 K, x1 = 0.9749	–	875.7
[1], 298.15 K, x1 = 1	–	882.5
[1], 318.15 K, x1 = 0.0304	–	641.7
[1], 318.15 K, x1 = 0.0796	–	650.7
[1], 318.15 K, x1 = 0.1381	–	661.7
[1], 318.15 K, x1 = 0.2079	–	675.3
[1], 318.15 K, x1 = 0.2642	–	686.6
[1], 318.15 K, x1 = 0.3318	–	700.5
[1], 318.15 K, x1 = 0.3997	–	714.9
[1], 318.15 K, x1 = 0.4505	–	725.9
[1], 318.15 K, x1 = 0.5124	–	739.7
[1], 318.15 K, x1 = 0.5708	–	752.9
[1], 318.15 K, x1 = 0.622	–	764.8
[1], 318.15 K, x1 = 0.6815	–	778.9
[1], 318.15 K, x1 = 0.7426	–	793.7
[1], 318.15 K, x1 = 0.7992	–	807.7
[1], 318.15 K, x1 = 0.8648	–	824.4
[1], 318.15 K, x1 = 0.9227	–	839.3
[1], 318.15 K, x1 = 1	–	859.8
[1], 328.15 K, x1 = 0.0253	–	631.3
[1], 328.15 K, x1 = 0.0749	–	640.2
[1], 328.15 K, x1 = 0.1369	–	651.6
[1], 328.15 K, x1 = 0.2052	–	664.7
[1], 328.15 K, x1 = 0.2719	–	677.8
[1], 328.15 K, x1 = 0.3322	–	690.1
[1], 328.15 K, x1 = 0.3986	–	704
[1], 328.15 K, x1 = 0.4614	–	717.6
[1], 328.15 K, x1 = 0.5209	–	730.7
[1], 328.15 K, x1 = 0.5809	–	744.3
[1], 328.15 K, x1 = 0.62	–	753.3
[1], 328.15 K, x1 = 0.6944	–	770.8
[1], 328.15 K, x1 = 0.7605	–	786.8
[1], 328.15 K, x1 = 0.8114	–	799.4
[1], 328.15 K, x1 = 0.8707	–	814.4
[1], 328.15 K, x1 = 0.9235	–	828
[1], 328.15 K, x1 = 1	–	848.3
[2], 291.15 K, x1 = 0.074	0.0657	–
[2], 291.15 K, x1 = 0.1514	0.13	–
[2], 291.15 K, x1 = 0.2307	0.179	–
[2], 291.15 K, x1 = 0.3056	0.2204	–
[2], 291.15 K, x1 = 0.3758	0.2481	–
[2], 291.15 K, x1 = 0.4417	0.2598	–
[2], 291.15 K, x1 = 0.4984	0.2651	–
[2], 291.15 K, x1 = 0.5492	0.2605	–
[2], 291.15 K, x1 = 0.5528	0.2598	–
[2], 291.15 K, x1 = 0.6101	0.2459	–
[2], 291.15 K, x1 = 0.6705	0.2275	–
[2], 291.15 K, x1 = 0.7361	0.1953	–
[2], 291.15 K, x1 = 0.8064	0.157	–
[2], 291.15 K, x1 = 0.8762	0.111	–
[2], 291.15 K, x1 = 0.9422	0.0588	–
[2], 298.15 K, x1 = 0.0319	0.0246	–
[2], 298.15 K, x1 = 0.0736	0.0648	–
[2], 298.15 K, x1 = 0.145	0.126	–
[2], 298.15 K, x1 = 0.2223	0.178	–
[2], 298.15 K, x1 = 0.3011	0.2225	–
[2], 298.15 K, x1 = 0.366	0.2481	–
[2], 298.15 K, x1 = 0.4223	0.2639	–
[2], 298.15 K, x1 = 0.503	0.2682	–
[2], 298.15 K, x1 = 0.559	0.2615	–
[2], 298.15 K, x1 = 0.6073	0.2495	–
[2], 298.15 K, x1 = 0.6518	0.234	–
[2], 298.15 K, x1 = 0.7091	0.2089	–
[2], 298.15 K, x1 = 0.7653	0.177	–
[2], 298.15 K, x1 = 0.8334	0.136	–
[2], 298.15 K, x1 = 0.8989	0.0899	–
[2], 298.15 K, x1 = 0.9494	0.0466	–
[2], 318.15 K, x1 = 0.0748	0.0691	–
[2], 318.15 K, x1 = 0.1298	0.122	–
[2], 318.15 K, x1 = 0.2004	0.176	–
[2], 318.15 K, x1 = 0.2777	0.2249	–
[2], 318.15 K, x1 = 0.3479	0.2529	–
[2], 318.15 K, x1 = 0.4119	0.2674	–
[2], 318.15 K, x1 = 0.4746	0.2739	–
[2], 318.15 K, x1 = 0.5084	0.2729	–
[2], 318.15 K, x1 = 0.5582	0.2694	–
[2], 318.15 K, x1 = 0.6039	0.2581	–
[2], 318.15 K, x1 = 0.6543	0.2419	–
[2], 318.15 K, x1 = 0.7123	0.2185	–
[2], 318.15 K, x1 = 0.7753	0.185	–
[2], 318.15 K, x1 = 0.8288	0.147	–
[2], 318.15 K, x1 = 0.8906	0.0997	–
[2], 318.15 K, x1 = 0.9452	0.0535	–
